The source of these data is US9187465B2, “Oxazole tyrosine kinase inhibitors” (Sareum Limited, priority 2007, dated 2015).

Assay [1] concerns treatment-refractory primary Acute Myelogenous Leukemia (AML) cells. Particulars: treatment-refractory cells from patients; cited from earlier work.
Another assay concerns the target T1, human FLT4 (Homo sapiens, UniProt P35916).
T1 construct: a construct expressing the human FLT4 (789-1207) with an amino terminal GST tag; host or cells: Sf9 insect cells (baculovirus)
Put plainly: FLT4 kinase assay (DELFIA enzyme inhibition). Format: biochemical. Particulars: read-out: FLT4 IC50. In a few lines: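 GST-tagged human FLT4 (789-1207) from Sf9 cells phosphorylates a biotinylated MET (Tyr1253)-derived peptide for 30 min at room temperature, stopped with EDTA. Phosphopeptide is captured on Neutravidin and detected with Eu-labelled anti-phosphotyrosine antibody by time-resolved fluorescence; IC50 from % inhibition curves.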

Another assay has as its target T2, human FLT3 (Homo sapiens, UniProt P36888).
T2 construct: a construct expressing the human FLT3 (564-993) with an amino terminal GST tag; host or cells: Sf9 insect cells (baculovirus)
T2 sequence (P36888 564-993): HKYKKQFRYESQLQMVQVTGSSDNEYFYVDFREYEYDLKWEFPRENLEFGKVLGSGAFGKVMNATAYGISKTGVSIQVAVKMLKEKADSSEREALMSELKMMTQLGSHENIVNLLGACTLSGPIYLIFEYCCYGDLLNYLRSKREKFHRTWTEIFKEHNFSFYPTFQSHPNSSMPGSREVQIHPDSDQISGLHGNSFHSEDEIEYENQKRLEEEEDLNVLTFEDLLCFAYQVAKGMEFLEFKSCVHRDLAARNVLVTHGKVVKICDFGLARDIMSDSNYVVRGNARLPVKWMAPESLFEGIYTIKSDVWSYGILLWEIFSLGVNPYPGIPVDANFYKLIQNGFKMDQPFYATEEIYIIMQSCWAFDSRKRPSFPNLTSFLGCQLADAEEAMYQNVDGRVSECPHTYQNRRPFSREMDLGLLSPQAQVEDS
The experiment in a line: FLT3 kinase assay (DELFIA enzyme inhibition). The assay is classed as biochemical. In a few lines: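 GST-tagged human FLT3 (564-993), expressed in sf9 cells, phosphorylated a biotinylated Gastrin Precursor (Tyr 87)-derived peptide for 30 min at room temperature before EDTA stop. The captured peptide was detected by Eu-labelled anti-phosphotyrosine DELFIA time-resolved fluorescence. IC50 was derived from % inhibition curves.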

Another assay deals with T3, human Aurora A (Homo sapiens, UniProt O14965).
T3 construct: Histidine tag (N); host or cells: Sf9 insect cells (baculovirus)
T3 sequence (O14965 1-403): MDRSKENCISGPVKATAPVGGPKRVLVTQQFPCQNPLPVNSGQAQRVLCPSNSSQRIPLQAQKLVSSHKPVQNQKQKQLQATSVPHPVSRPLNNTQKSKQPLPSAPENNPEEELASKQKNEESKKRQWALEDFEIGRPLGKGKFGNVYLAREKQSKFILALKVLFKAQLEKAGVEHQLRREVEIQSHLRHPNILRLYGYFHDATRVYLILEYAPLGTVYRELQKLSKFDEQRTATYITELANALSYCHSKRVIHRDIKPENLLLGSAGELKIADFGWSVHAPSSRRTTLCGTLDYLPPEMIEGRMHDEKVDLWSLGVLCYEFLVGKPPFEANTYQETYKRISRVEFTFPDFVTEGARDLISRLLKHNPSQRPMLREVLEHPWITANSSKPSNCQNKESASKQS
The experiment in a line: Aurora A kinase assay (DELFIA enzyme inhibition). Format: biochemical. Conditions: read-out: Aurora A IC50. The procedure, abridged:
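DELFIA read-out (time-resolved Eu fluorescence, 620 nm emission) after Neutravidin capture of biotinylated peptide substrate and antibody detection. Reaction: Ni-agarose-purified Aurora A, 30 min at room temperature, stopped with 100 mM EDTA.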

The test system of the next assay is HCT116 cells. The experiment in a line: Anti-proliferative activity, Alamar Blue assay, HCT116. Particulars: Homo sapiens, HCT-116, 72 hours, read-out: cell proliferation IC50. Format: cell-based. On the procedure: (§1) The anti-proliferative activities of compounds of the invention are determined by measuring the ability of the compounds to inhibition of cell growth in a number of cell lines. Inhibition of cell growth is measured using the Alamar Blue assay (Nociari et al., Journal of Immunological Methods (1998) 213, 157-167). The method is based on the ability of viable cells to reduce resazurin to its fluorescent product resorufin. For each proliferation assay cells are plated onto 96 well plates and allowed to recover for 16 hours prior to the addition of inhibitor compounds for a further 72 hours. At the end of the incubation period 10% (v/v) Alamar Blue is added and incubated for a further 6 hours prior to determination of fluorescent product at Excitation 535 nm and Emission 590 nm. In the case of the non-proliferating cell assay cells are maintained at confluence for 96 hour prior to the addition of inhibitor compounds for a further 72 hours. The number of viable cells is determined by Alamar Blue assay as before. All cell lines are obtained from ECACC (European Collection of cell Cultures).
(In general: The colour change of resazurin is a common sign of viable cells or microbes.)

The subject of assay [2] is A549 human lung carcinoma cells. Put plainly: Anti-proliferative activity, Alamar Blue assay, A549. The assay is classed as cell-based. Particulars: A549, 72 h, read-out: cell growth IC50. Here is the method: as §1
For assay [3], the system named is SW620, HCT-116, Colo205, A549, Calu-6 or HL-60 tumour xenografts. Conditions: cited from earlier work.

The structures appear in SMILES notation. pIC50: −log10 of the molar value.

T1 sequence (P35916 789-1207): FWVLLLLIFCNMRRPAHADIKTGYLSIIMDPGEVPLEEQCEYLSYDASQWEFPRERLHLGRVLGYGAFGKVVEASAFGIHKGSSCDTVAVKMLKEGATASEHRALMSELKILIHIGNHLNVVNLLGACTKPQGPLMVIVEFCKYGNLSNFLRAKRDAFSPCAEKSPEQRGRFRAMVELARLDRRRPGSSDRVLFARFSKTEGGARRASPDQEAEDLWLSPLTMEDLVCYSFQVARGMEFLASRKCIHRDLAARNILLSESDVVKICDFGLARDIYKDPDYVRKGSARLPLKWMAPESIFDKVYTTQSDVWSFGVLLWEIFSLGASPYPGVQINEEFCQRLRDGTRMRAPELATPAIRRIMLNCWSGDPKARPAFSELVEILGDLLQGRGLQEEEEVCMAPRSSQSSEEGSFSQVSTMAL

Take `Cc1cc(Nc2cc(N3CCN(C)CC3)nc(Sc3ccc(NC(=O)C4CC4)cc3)n2)n[nH]1` [VX-680]: the “killing of primary AML cells” value in assay [1] is listed as “potently killed”.
In the case of `CN1CCN(C(=O)c2ccc(Nc3oc(-c4c(F)cccc4Cl)nc3C(N)=O)cc2)CC1` [Example Q-57], the pIC50 (on human FLT4; against human FLT3; on human Aurora A; with HCT116 cells; in assay [2]) was above 5.00 each time.
Regarding `NC(=O)c1nc(-c2cccc3[nH]ncc23)oc1-c1ccc(N2CCNCC2)cc1` [Example M-17, 2-(1H-indazol-4-yl)-5-(4-(piperazin-1-yl)phenyl)oxazole-4-carboxamide], the pIC50 (on human FLT4; against human FLT3; at human Aurora A; with HCT116 cells; in assay [2]) was above 5.00 in each case.
With `NC(=O)c1nc(-c2c(F)cccc2F)oc1-c1ccc(N2CCNCC2)cc1` [Example G-3, 2-(2,6-difluorophenyl)-5-(4-(piperazin-1-yl)phenyl)oxazole-4-carboxamide], the pIC50 (at human FLT4; on human FLT3; on human Aurora A; in the assay with HCT116 cells; in assay [2]) was above 5.00 throughout.
Regarding `NC(=O)c1nc(-c2c(F)cccc2Cl)oc1-c1ccc(N2CCNCC2)cc1` [Example G-5, 2-(2-chloro-6-fluorophenyl)-5-(4-(piperazin-1-yl)phenyl)oxazole-4-carboxamide], the pIC50 (at human FLT4; at human FLT3; at human Aurora A; in the assay with HCT116 cells; in assay [2]) was above 5.00 each time.
Consider `NC(=O)c1nc(-c2c(F)cccc2Cl)oc1Nc1ccc(N2CCNCC2)cc1` [Example Q-36, 2-(2-chloro-6-fluorophenyl)-5-(4-(piperazin-1-yl)phenylamino)oxazole-4-carboxamide], for which the pIC50 (on human FLT4; at human FLT3; at human Aurora A; in the assay on HCT116 cells; in assay [2]) was above 5.00 throughout.
Turning to `CCN(CCCOc1ccc2c(Nc3cc(CC(=O)Nc4cccc(F)c4)n[nH]3)ncnc2c1)CCOP(=O)(O)O` [AZD1152], the “complete tumour regression (animals)” value in assay [3] (HL-60 xenograft) is given as 8 of 11. Further, the “inhibition of tumour growth” value in assay [3] (dosed over 48 h via sub-cutaneous mini-pump infusion, all xenograft models) was 55% to 100.
